{"source": "patent US8216786B2", "about": "“Genetic polymorphisms associated with cardiovascular diseases, methods of detection and uses thereof” (Celera Corporation, priority 2008, dated 2012)", "tested_on": "individuals who have previously had an MI", "assay": "CARE trial: effect of pravastatin vs placebo on coronary events (endpt1, rmi) by SNP genotype subgroup", "format": "in vivo, human", "conditions": "for HR: pravastatin vs placebo", "description": "In Tables 21-22, the column labeled “Endpoint” indicates whether the endpoint that was analyzed was the primary endpoint of the CARE study (a composite endpoint of fatal coronary event or nonfatal MI, and identified as “endpt1”) or a composite endpoint of confirmed fatal or nonfatal MI (identified as “rmi”). […] As used herein, the term “benefit” (with respect to a preventive or therapeutic drug treatment) is defined as achieving a reduced risk for a disease that the drug is intended to treat or prevent (e.g., CVD such as CHD, particularly MI, or hypertension) by administering the drug treatment, compared with the risk for the disease in the absence of receiving the drug treatment (or receiving a placebo in lieu of the drug treatment) for the same genotype. […] J. […] (1996) New England Journal of Medicine 335: 1001-1009. […] A well-documented MI was one of the enrollment criteria for entry into the CARE study. Patients were enrolled in the CARE trial from 80 participating study centers. […] For the study of CARE described in this Example and shown in Tables 21-22, two endpoints were investigated: the primary endpoint of CARE (a composite endpoint of fatal coronary event or nonfatal MI, and identified as “endpt1” in the Endpoint column of Tables 21-22) and a composite endpoint of confirmed fatal or nonfatal MI (identified as “rmi” in the Endpoint column of Tables 21-22). […] HR stands for Hazard Ratio, which is a concept similar to Odds Ratio (OR). The HR in event-free survival analysis is the effect of an explanatory variable on the hazard or risk of an event. […] In Table 21, p-interaction values were calculated. An interaction (or effect modification) is formed when a third variable modifies the relation between an exposure and outcome. […] Genotype and drug interaction is present when the effect of statins (incidence rate of disease in statin-treated group, as compared to placebo) differs in patients with different genotypes.", "key": {"[1]": {"conditions": "endpt1, hCV25631989 rs1135983 ATF6, CC"}, "[2]": {"conditions": "endpt1, hCV25631989 rs1135983 ATF6, TC + TT"}, "[3]": {"conditions": "endpt1, hCV25637309 rs3204849 CCRL2, AA"}, "[4]": {"conditions": "endpt1, hCV25637309 rs3204849 CCRL2, AT + TT"}, "[5]": {"conditions": "endpt1, hCV25644901 ITGA9, GA + GG"}, "[6]": {"conditions": "endpt1, hCV25651076 rs5743291 NOD2, AG + AA"}, "[7]": {"conditions": "endpt1, hCV25651076 rs5743291 NOD2, GG"}, "[8]": {"conditions": "endpt1, hCV25651174 rs9277356 HLA-DPB1, GA + GG"}, "[9]": {"conditions": "endpt1, hCV342590 rs6030 F5, Strata CC"}, "[10]": {"conditions": "endpt1, hCV342590 rs6030 F5, Strata CT"}, "[11]": {"conditions": "endpt1, hCV342590 rs6030 F5, Strata TT"}, "[12]": {"conditions": "endpt1, hCV435368 rs2812 PECAM1, Strata CC"}, "[13]": {"conditions": "endpt1, hCV435368 rs2812 PECAM1, Strata TC"}, "[14]": {"conditions": "endpt1, hCV435368 rs2812 PECAM1, Strata TT"}, "[15]": {"conditions": "endpt1, hCV3135085 rs10795446 CUBN, Strata GT"}, "[16]": {"conditions": "endpt1, hCV3135085 rs10795446 CUBN, Strata TT"}, "[17]": {"conditions": "endpt1, hCV3275199 rs2069885 IL9, Strata AA"}, "[18]": {"conditions": "endpt1, hCV3275199 rs2069885 IL9, Strata AG"}, "[19]": {"conditions": "endpt1, hCV3275199 rs2069885 IL9, Strata GG"}}, "data": [{"smiles": "CC[C@H](C)C(=O)O[C@H]1C[C@H](O)C=C2C=C[C@H](C)[C@H](CC[C@@H](O)C[C@@H](O)CC(=O)O)[C@H]21", "note": "[pravastatin]", "values": [{"measurement": "NONEVENT (Pravastatin arm)", "setting": "endpt1, hCV25630686 PSMB9, TC + TT", "result": 85}, {"measurement": "EVENTS (Pravastatin arm)", "setting": "[1]", "result": 107}, {"measurement": "NONEVENT (Pravastatin arm)", "setting": "[1]", "result": 1044}, {"measurement": "EVENTS (Pravastatin arm)", "setting": "[2]", "result": 26}, {"measurement": "NONEVENT (Pravastatin arm)", "setting": "[2]", "result": 198}, {"measurement": "EVENTS (Pravastatin arm)", "setting": "[3]", "result": 24}, {"measurement": "NONEVENT (Pravastatin arm)", "setting": "[3]", "result": 184}, {"measurement": "EVENTS (Pravastatin arm)", "setting": "[4]", "result": 109}, {"measurement": "NONEVENT (Pravastatin arm)", "setting": "[4]", "result": 1107}, {"measurement": "EVENTS (Pravastatin arm)", "setting": "endpt1, hCV25640504, TC + CC", "result": 113}, {"measurement": "NONEVENT (Pravastatin arm)", "setting": "endpt1, hCV25640504, TC + CC", "result": 1035}, {"measurement": "EVENTS (Pravastatin arm)", "setting": "endpt1, hCV25640504, TT", "result": 12}, {"measurement": "NONEVENT (Pravastatin arm)", "setting": "endpt1, hCV25640504, TT", "result": 194}, {"measurement": "EVENTS (Pravastatin arm)", "setting": "endpt1, hCV25644901 ITGA9, AA", "result": 124}, {"measurement": "NONEVENT (Pravastatin arm)", "setting": "endpt1, hCV25644901 ITGA9, AA", "result": 1171}, {"measurement": "EVENTS (Pravastatin arm)", "setting": "[5]", "result": 9}, {"measurement": "NONEVENT (Pravastatin arm)", "setting": "[5]", "result": 120}, {"measurement": "EVENTS (Pravastatin arm)", "setting": "[6]", "result": 28}, {"measurement": "NONEVENT (Pravastatin arm)", "setting": "[6]", "result": 217}, {"measurement": "EVENTS (Pravastatin arm)", "setting": "[7]", "result": 104}, {"measurement": "NONEVENT (Pravastatin arm)", "setting": "[7]", "result": 1068}, {"measurement": "EVENTS (Pravastatin arm)", "setting": "[8]", "result": 76}, {"measurement": "NONEVENT (Pravastatin arm)", "setting": "[8]", "result": 641}, {"measurement": "EVENTS (Pravastatin arm)", "setting": "[9]", "result": 15}, {"measurement": "NONEVENT (Pravastatin arm)", "setting": "[9]", "result": 123}, {"measurement": "EVENTS (Pravastatin arm)", "setting": "[10]", "result": 44}, {"measurement": "NONEVENT (Pravastatin arm)", "setting": "[10]", "result": 553}, {"measurement": "EVENTS (Pravastatin arm)", "setting": "[11]", "result": 74}, {"measurement": "NONEVENT (Pravastatin arm)", "setting": "[11]", "result": 613}, {"measurement": "EVENTS (Pravastatin arm)", "setting": "[12]", "result": 37}, {"measurement": "NONEVENT (Pravastatin arm)", "setting": "[12]", "result": 369}, {"measurement": "EVENTS (Pravastatin arm)", "setting": "[13]", "result": 56}, {"measurement": "NONEVENT (Pravastatin arm)", "setting": "[13]", "result": 649}, {"measurement": "EVENTS (Pravastatin arm)", "setting": "[14]", "result": 40}, {"measurement": "NONEVENT (Pravastatin arm)", "setting": "[14]", "result": 272}, {"measurement": "EVENTS (Pravastatin arm)", "setting": "[15]", "result": 64}, {"measurement": "NONEVENT (Pravastatin arm)", "setting": "[15]", "result": 554}, {"measurement": "EVENTS (Pravastatin arm)", "setting": "[16]", "result": 57}, {"measurement": "NONEVENT (Pravastatin arm)", "setting": "[16]", "result": 575}, {"measurement": "EVENTS (Pravastatin arm)", "setting": "[17]", "result": 5}, {"measurement": "NONEVENT (Pravastatin arm)", "setting": "[17]", "result": 28}, {"measurement": "EVENTS (Pravastatin arm)", "setting": "[18]", "result": 18}, {"measurement": "NONEVENT (Pravastatin arm)", "setting": "[18]", "result": 310}, {"measurement": "EVENTS (Pravastatin arm)", "setting": "[19]", "result": 109}, {"measurement": "NONEVENT (Pravastatin arm)", "setting": "[19]", "result": 947}, {"measurement": "HR", "setting": "hCV16189421, first genotype stratum listed (strata and endpoint not given)", "result": 1}, {"measurement": "HR", "setting": "hCV16189421, second genotype stratum listed (strata and endpoint not given)", "result": 0.67}, {"measurement": "HR", "setting": "hCV25630686, first genotype stratum listed (strata and endpoint not given)", "result": 0.35}, {"measurement": "HR", "setting": "hCV25630686, second genotype stratum listed (strata and endpoint not given)", "result": 0.81}, {"measurement": "HR", "setting": "hCV25631989, first genotype stratum listed (strata and endpoint not given)", "result": 1.83}, {"measurement": "HR", "setting": "hCV25631989, second genotype stratum listed (strata and endpoint not given)", "result": 0.72}, {"measurement": "HR", "setting": "hCV25644901, first genotype stratum listed (strata and endpoint not given)", "result": 0.32}, {"measurement": "HR", "setting": "hCV25644901, second genotype stratum listed (strata and endpoint not given)", "result": 0.86}]}]}
